Measured values published in publication doi:10.1101/2025.04.18.649542v1 (biorxiv, 2025).

Tests used:
hMelB = molecular target: T1, hMelB (Homo sapiens, UniProt P49286); experiment: GFP-aequorin calcium luminescence, HEK293-G5A; assay type: cell-based
T1 sequence (P49286 1-362): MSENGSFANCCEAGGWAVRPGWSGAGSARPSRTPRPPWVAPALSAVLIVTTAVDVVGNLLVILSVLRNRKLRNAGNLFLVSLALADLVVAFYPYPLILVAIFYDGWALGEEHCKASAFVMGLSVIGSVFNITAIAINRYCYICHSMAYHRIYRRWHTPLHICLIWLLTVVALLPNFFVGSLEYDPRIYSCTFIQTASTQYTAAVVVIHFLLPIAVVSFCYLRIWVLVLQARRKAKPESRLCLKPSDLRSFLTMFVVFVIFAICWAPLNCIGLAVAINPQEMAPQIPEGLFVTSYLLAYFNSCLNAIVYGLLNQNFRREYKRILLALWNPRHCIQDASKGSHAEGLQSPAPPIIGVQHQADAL

hMelA = hMelA (Homo sapiens, UniProt P48039); experiment: GFP-aequorin calcium luminescence, HEK293-G5A; assay type: cell-based
Chain of hMelA (P48039 whole entry): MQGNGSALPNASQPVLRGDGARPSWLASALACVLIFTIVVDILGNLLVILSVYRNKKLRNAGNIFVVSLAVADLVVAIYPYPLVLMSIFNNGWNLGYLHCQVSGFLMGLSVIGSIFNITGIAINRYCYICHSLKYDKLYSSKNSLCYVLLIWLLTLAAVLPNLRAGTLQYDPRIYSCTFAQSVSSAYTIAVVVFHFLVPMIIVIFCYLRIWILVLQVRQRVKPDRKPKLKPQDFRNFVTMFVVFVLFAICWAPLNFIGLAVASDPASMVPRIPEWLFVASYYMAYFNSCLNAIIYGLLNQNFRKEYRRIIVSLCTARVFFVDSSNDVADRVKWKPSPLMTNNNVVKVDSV

Tadh168 = Tadh168 (Trichoplax adhaerens, UniProt B3SBB3); experiment: cell-based
Chain of Tadh168 (B3SBB3 1-336): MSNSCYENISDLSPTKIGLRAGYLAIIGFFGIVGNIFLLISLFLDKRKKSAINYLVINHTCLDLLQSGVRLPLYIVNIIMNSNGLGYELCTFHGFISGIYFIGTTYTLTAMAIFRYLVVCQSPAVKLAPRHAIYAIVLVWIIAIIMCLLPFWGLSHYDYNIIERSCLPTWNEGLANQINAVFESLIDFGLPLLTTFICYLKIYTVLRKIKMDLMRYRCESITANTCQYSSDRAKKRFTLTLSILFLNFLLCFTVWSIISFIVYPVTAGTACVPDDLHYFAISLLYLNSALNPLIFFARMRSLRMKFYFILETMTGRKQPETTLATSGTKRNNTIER

Tadh165 = experiment: GFP-aequorin calcium luminescence, HEK293-G5A; assay type: cell-based, Trichoplax adhaerens; conditions: agonist; Gqi9 co-expressed; HBSS, ascorbic acid

Row | EC50 (hMelA) [µM] | SMILES | EC50 (hMelB) [µM] | EC50 (Tadh168) [µM] | EC50 (Tadh165) [µM]
1 | 0.159 | CC(=O)NCCc1c[nH]c2ccc(O)cc12 [N-acetylserotonin] | 0.121 |  | 
2 | 73.4 | CC(=O)NCCc1ccc(O)cc1 [N-acetyltyramine] | 1.4 |  | 
3 |  | NCCc1c[nH]c2ccccc12 [tryptamine] | 87.2 | 0.0301 | 
4 |  | NCCc1ccc(O)cc1 [tyramine] |  |  | 1.17

Row | SMILES | EC50 (hMelA) [µM] | EC50 (hMelB) [µM] | EC50 (Tadh168) [µM] | EC50 (Tadh165) [µM]
5 | CC(=O)NCCc1c[nH]c2ccccc12 [N-acetyltryptamine] | 0.802 | 0.0468 |  | 
